Source: patent US20150291570A1, “Substituted N-(tetrazol-5-yl)- and N-(triazol-5-yl)arylcarboxamide compounds and their use as herbicides” (BASF SE, priority 2012, published 2015)

How the values were obtained:
Assay type in all cases: in vivo
[1] = test system: Amaranthus retroflexus L. (pigweed); experiment: Greenhouse pre-emergence treatment of Amaranthus retroflexus; settings: application rate 1000 g/ha, scale 0 to 100
Source text: The seeds of the test plants were sown separately for each species. For the pre-emergence treatment, the active ingredients, which had been suspended or emulsified in water, were applied directly after sowing by means of finely distributing nozzles. The containers were irrigated gently to promote germination and growth and subsequently covered with transparent plastic hoods until the plants had rooted. This cover caused uniform germination of the test plants, unless this has been impaired by the active ingredients. Depending on the species, the plants were kept at 10-25° C. or 20-35° C. The test period extended over 2 to 4 weeks. During this time, the plants were tended, and their response to the individual treatments was evaluated. Evaluation was carried out using a scale from 0 to 100. 100 means no emergence of the plants, or complete destruction of at least the aerial moieties, and 0 means no damage, or normal course of growth. A good herbicidal activity is given at values of at least 70 and a very good herbicidal activity is given at values of at least 85. The plants used in the greenhouse experiments belonged to the following species: [table]

[2] = test system: Abutilon theophrasti (velvetleaf); experiment: Greenhouse post-emergence treatment of Abutilon theophrasti; settings: application rate 1000 g/ha, scale 0 (no damage) to 100 (complete destruction)
Source text: (§1) The seeds of the test plants were sown separately for each species. For the post-emergence treatment, the test plants were first grown to a height of 3 to 15 cm, depending on the plant habit, and only then treated with the active ingredients which had been suspended or emulsified in water. For this purpose, the test plants were either sown directly and grown in the same containers, or they were first grown separately as seedlings and transplanted into the test containers a few days prior to treatment. Depending on the species, the plants were kept at 10-25° C. or 20-35° C. The test period extended over 2 to 4 weeks. During this time, the plants were tended, and their response to the individual treatments was evaluated. Evaluation was carried out using a scale from 0 to 100. 100 means no emergence of the plants, or complete destruction of at least the aerial moieties, and 0 means no damage, or normal course of growth. A good herbicidal activity is given at values of at least 70 and a very good herbicidal activity is given at values of at least 85. The plants used in the greenhouse experiments belonged to the following species: [table]

[3] = test system: Echinochloa crus-galli (barnyard grass); experiment: Greenhouse post-emergence treatment of Echinochloa crus-galli; settings: application rate 1000 g/ha, scale 0 to 100
Source text: as §1

## CON=C1CCS(=O)(=O)c2ccc(C(=O)Nc3ncnn3C)c(C)c21 [I.A-47]
[1]
  damage [%]: 70%
[2]
  damage [%]: 100%
[3]
  damage [%]: 95%

## CON=C1CCS(=O)(=O)c2ccc(C(=O)Nc3nnnn3C)c(C)c21 [V.A-47]
[1]
  damage [%]: 100%
[2]
  damage [%]: 100%
[3]
  damage [%]: 100%
